From patent EP4768479A1 (Hubei Bio-Pharmaceutical Industrial Technological Institute …, priority 2023, dated 2025)

Columns and labels:
AT2R = biological target: T1, AT2R (Homo sapiens, UniProt P50052); assay: Binding assay of compounds to AT2R (Tag-lite HTRF ligand binding kit)
T1 construct: purchased Cisbio #C1TT1AT2
T1 sequence (P50052 1-363): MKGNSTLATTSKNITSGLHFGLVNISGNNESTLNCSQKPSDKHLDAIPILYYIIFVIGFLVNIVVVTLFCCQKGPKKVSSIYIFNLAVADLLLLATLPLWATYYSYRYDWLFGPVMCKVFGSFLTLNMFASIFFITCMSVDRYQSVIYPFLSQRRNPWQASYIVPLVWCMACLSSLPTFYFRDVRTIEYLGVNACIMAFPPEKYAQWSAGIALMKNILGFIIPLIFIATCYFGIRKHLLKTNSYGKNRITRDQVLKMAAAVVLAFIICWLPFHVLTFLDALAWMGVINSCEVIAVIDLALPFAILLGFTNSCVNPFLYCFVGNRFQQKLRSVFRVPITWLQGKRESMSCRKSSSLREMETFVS
Procedure: The assay was performed in accordance with the manufacturer instructions of Angiotensin AT2 Receptor Ligand Binding Assay Kit (#C1TT1AT2, Cisbio). First, a 10 mM compound stock solution was diluted in a gradient at a 5× dilution ratio (including 10 concentrations, each with two replicates). 160 nL of compounds at different concentrations was added to a 384-well plate. 40 µL of 1× TLB (TLB: Tag-lite buffer) was added to each well, and the mixture was shaken at room temperature for 15 minutes. A 15 mL centrifuge tube added with 5 mL of 1×TLB was prepared in advance. The frozen labeled cells were thawed in a water bath at 37°C (for 1 to 2 minutes), and the thawed cells were quickly transferred to the above 15 mL centrifuge tube. The mixture was mixed well and centrifuged at 1,000 g at room temperature for 5 minutes. The supernatant was removed, and the cells were resuspended by adding 2.7 mL 1× TLB. A new 384-well plate was taken, and 10 µL of mixed cells were added into the corresponding wells according to the assay design. 5 µL of 4× compound solution and 5 µL of 4× Tag-lite red fluorescent labeled ligand were added to each well. After incubation at room temperature for 1 hour, data were read using EnVision with an HTRF mode. The […] at 665nM and 615nM in each well were read respectively, and the ratio was calculated (Ratio=A665nM/B615nM). The IC50 value was calculated by means of GraphPad Prism8 software, where X represents logarithmic value of compound concentration; and Y represents ratio of A665nM/B615nM.

[1] = Bidirectional permeability study in Caco-2 cells; type: in vitro ADME; details: human, pH 7.4, Caco-2, 2.00 µM, A to B
Procedure: Caco-2 cells were inoculated onto […] (PET) in 96-well inserted plates at a rate of 1×10^5 cells/cm^2, and the medium was changed every 4 to 5 days until day 21 to 28, to form a fused cell monolayer. The transport buffer in the assay was HBSS and 10.0 mM HEPES, with a pH of 7.40±0.05. The test compounds were subjected to a bidirectional test at 2.00 µM in the presence and absence of GF120918 (10.0 µM). Digoxin was subjected to a bidirectional test at 10.0 µM in the presence and absence of GF120918 (10.0 µM), while Nadolol and Metoprolol were subjected to a test from direction A to direction B at 2.00 µM in the absence of GF120918 (10.0 µM). The above tests were performed in duplicate. The final concentration of DMSO was adjusted to be lower than 1%. The plate was incubated in a CO2 incubator at 37°C±1°C for 2 hours, and 5% CO2 was added under saturated humidity without shaking. All the samples, after being mixed with acetonitrile containing internal standard, were centrifuged at 3,200 g for 10 minutes. For Nadolol and Metoprolol, 200 µL of supernatant was diluted with 600 µL of distilled water for LC-MS/MS analysis. For Digoxin and test compounds, 200 µL of supernatant was diluted with 200 µL of distilled water for LC-MS/MS analysis. The concentrations of the test compounds and control compounds in the starting solution, the donor solution, and the acceptor solution were quantified by LC-MS/MS based on a peak area ratio of the analyte to the internal standard.
After the transport assay, the integrity of the Caco-2 cell monolayer was determined using Lucifer Yellow Exclusion Assay. [Table 4] Bidirectional Permeability of Compounds in Caco-2 Cells

CYP2C9 = biological target: T2, CYP2C9 (Homo sapiens, UniProt P11712); assay: CYP inhibition assay in mixed human liver microsomes; type: in vitro ADME; details: read-out: Inhibition Rate % CYP2C9
T2 construct: Mixed human liver microsomes; from tissue; host or cells: mixed (pooled) human liver microsomes
T2 sequence (P11712 whole entry): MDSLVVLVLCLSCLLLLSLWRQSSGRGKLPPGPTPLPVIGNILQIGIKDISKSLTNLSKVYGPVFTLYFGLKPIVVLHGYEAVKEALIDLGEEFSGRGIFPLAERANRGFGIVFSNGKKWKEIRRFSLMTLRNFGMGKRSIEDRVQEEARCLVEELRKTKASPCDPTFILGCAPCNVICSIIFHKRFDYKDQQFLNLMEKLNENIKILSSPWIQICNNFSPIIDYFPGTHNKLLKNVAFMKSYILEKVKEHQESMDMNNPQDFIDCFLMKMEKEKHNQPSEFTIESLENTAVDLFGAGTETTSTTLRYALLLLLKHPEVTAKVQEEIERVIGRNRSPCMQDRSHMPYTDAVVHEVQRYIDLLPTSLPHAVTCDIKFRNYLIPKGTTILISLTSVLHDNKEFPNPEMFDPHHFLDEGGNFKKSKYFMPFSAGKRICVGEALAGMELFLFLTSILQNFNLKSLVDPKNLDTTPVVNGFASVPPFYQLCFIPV
Procedure: (§1) The inhibitory effects of the compounds on six enzymes, i.e., CYP1A2, CYP2C9, CYP2C19, CYP2D6, CYP3A4 (midazolam), and CYP2B6, were evaluated at a concentration of 10 µM. Mixed human liver microsomes, which were previously stored in a -80°C refrigerator before use, were taken out and thawed in a water bath at 37°C before use, and placed on ice for further operation. 100 µL of microsome working solution was taken, and added with 2 µL of compound or positive inhibitor working solution. 2 µL of solvent was added to the solvent control. The mixture was pre-incubated in a water bath at 37°C for 10 minutes. After the preincubation, 98 µL of NADPH regeneration solution was added to all samples to initiate the reaction. Then, the samples were put back into the water bath and incubated for a period of time. The reaction was quenched with 200 µL of stop solution. The plate was centrifuged at 3,220 g for 10 minutes, 100 µL of supernatant was transferred, and 100 µL of water was added and mixed well to the assay plate for LC/MS/MS analysis. [Table 2] CYP450 Inhibition Results of Compounds

CYP2B6 = biological target: T3, CYP2B6 (Homo sapiens, UniProt P20813); assay: as above; type: in vitro ADME; details: read-out: Inhibition Rate % CYP2B6
T3 construct: Mixed human liver microsomes; from tissue; host or cells: mixed (pooled) human liver microsomes
T3 sequence (P20813 1-491): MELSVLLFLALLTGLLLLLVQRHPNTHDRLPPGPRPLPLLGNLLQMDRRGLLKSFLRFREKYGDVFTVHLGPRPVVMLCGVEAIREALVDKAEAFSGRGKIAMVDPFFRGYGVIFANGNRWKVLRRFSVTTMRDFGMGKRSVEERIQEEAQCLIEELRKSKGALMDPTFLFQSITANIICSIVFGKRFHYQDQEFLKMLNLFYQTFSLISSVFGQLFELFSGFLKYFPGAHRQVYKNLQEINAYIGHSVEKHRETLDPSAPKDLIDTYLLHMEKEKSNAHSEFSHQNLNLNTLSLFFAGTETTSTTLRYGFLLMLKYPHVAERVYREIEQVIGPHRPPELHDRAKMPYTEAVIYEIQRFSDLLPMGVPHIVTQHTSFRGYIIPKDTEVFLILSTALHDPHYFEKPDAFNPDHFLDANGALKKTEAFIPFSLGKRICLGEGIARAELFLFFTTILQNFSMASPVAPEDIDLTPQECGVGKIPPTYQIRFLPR
Procedure: as §1

CYP2D6 = biological target: T4, CYP2D6 (Homo sapiens, UniProt P10635); assay: as above; type: in vitro ADME; details: read-out: Inhibition Rate % CYP2D6
T4 construct: Mixed human liver microsomes; from tissue; host or cells: mixed (pooled) human liver microsomes
T4 sequence (P10635 whole entry): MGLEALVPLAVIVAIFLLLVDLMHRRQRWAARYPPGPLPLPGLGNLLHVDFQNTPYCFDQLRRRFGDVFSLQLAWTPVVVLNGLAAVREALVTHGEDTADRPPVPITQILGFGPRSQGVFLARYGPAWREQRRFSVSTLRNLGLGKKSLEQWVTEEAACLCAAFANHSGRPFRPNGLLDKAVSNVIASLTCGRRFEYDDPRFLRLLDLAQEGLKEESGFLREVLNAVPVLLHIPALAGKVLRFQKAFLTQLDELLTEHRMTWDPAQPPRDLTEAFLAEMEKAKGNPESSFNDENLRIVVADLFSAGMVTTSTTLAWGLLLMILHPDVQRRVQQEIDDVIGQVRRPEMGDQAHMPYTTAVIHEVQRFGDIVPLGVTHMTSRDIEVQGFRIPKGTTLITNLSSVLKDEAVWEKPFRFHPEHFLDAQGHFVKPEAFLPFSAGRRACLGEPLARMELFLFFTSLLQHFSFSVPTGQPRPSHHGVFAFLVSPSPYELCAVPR
Procedure: as §1

Row | Compound | IC50 (AT2R) [nM] | Papp A→B at 2 h, 2 µM [1] [×10⁻⁶ cm/s] | inhibition at 10 µM (CYP2C9) [%] | inhibition at 10 µM (CYP2B6) [%] | inhibition at 10 µM (CYP2D6) [%]
1 | COC(=O)NS(=O)(=O)c1sc(CC(C)C)c(C)c1-c1ccc(Cn2ccnc2C(F)(F)F)cc1 [Compound I-9, Methyl ((5-isobutyl-4-methyl-3-(4-((2-(trifluoromethyl)-1H-imidazol-1-yl)methyl)phenyl)thiophen-2-yl)sulfonyl)carbamate] | 5.13 | 2.29 | 18.6 | 22.2 | 0
2 | Cc1c(CC(C)C)sc(S(=O)(=O)NC(=O)OCC(C)(C)O)c1-c1ccc(Cn2ccnc2C(F)(F)F)cc1 [Compound I-10, 2-hydroxy-2-methylpropyl ((5-isobutyl-4-methyl-3-(4-((2-(trifluoromethyl)-1H-imidazol-1-yl)methyl)phenyl)thiophen-2-yl)sulfonyl)carbamate] | 2.31 | 2.63 | 5.3 | 13.7 | 0
3 | Cc1c(CC(C)C)sc(S(=O)(=O)NC(=O)OCCO)c1-c1ccc(Cn2ccnc2C(F)(F)F)cc1 [Compound I-13, 2-hydroxyethyl ((5-isobutyl-4-methyl-3-(4-((2-(trifluoromethyl)-1H-imidazol-1-yl)methyl)phenyl)thiophen-2-yl)sulfonyl)carbamate] | 2.6 | 1.98 | 12.2 | 11.3 | 0
4 | COC(=O)NS(=O)(=O)c1sc(CC(C)C)c(C)c1-c1ccc(Cn2ccnc2Cl)c(F)c1 [Compound I-14, Methyl ((3-(4-((2-chloro-1H-imidazol-1-yl)methyl)-3-fluorophenyl)-5-isobutyl-4-methylthiophen-2-yl)sulfonyl)carbamate] | 1.39 | 3.73 | 24.8 | 4.3 | 2.1
5 | COC(=O)NS(=O)(=O)c1sc(CC(C)C)c(C)c1-c1ccc(Cn2ccnc2C(C)(C)O)cc1 [Compound I-19, Methyl ((3-(4-((2-(2-hydroxypropan-2-yl)-1H-imidazol-1-yl)methyl)phenyl)-5-isobutyl-4-methylthiophen-2-yl)sulfonyl)carbamate] | 2.91 | 3.24 | 0 | 3.8 | 0
6 | Cc1c(CC(C)C)sc(S(=O)(=O)Nc2ncccn2)c1-c1ccc(Cn2ccnc2Cl)cc1 [Compound I-23, 3-(4-((2-chloro-1H-imidazol-1-yl)methyl)phenyl)-5-isobutyl-4-methyl-N-(pyrimidin-2-yl)thiophene-2-sulfonamide] | 1.79 | 5.22 | 20.5 | 7.6 | 0
7 | CCCCOC(=O)NS(=O)(=O)c1sc(CC(C)C)cc1-c1ccc(Cn2ccnc2)cc1 [Control Compound I, reference compound] |  | 0.381 | 100 | 63.2 | 86.5
